In patent publication US20100216779A1 (GLAXOSMITHKLINE LLC, priority 2007, published 2010):

Assays:
Type in all cases: cell-based
COLO205 (colon) = assay: Inhibition of cell proliferation, CellTiter-Glo, COLO205; settings: Homo sapiens, COLO 205, 72 h
Method in brief: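 Exponentially growing COLO205 cells in medium with 10% FBS were plated below 2000 cells/well at 37 °C, 5% CO2. Untreated wells served as controls.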

[1] = tested on: NCI-H929 (multiple myeloma); assay: Inhibition of cell proliferation, CellTiter-Glo, NCI-H929; settings: Homo sapiens, 72 h
Experimental: C. Inhibition of Cell Proliferation
Cell proliferation was measured by either CellTiter-Glo (measures cellular ATP level as a surrogate for total cell number) or by InCell analyzer (counts number of nuclei as a measure of cell number). For CellTiter-Glo assay, exponentially growing cell lines of different tumor origins, cultured in appropriate media containing 10% fetal bovine serum at 37° C. in a 5% CO2 incubator, were plated at low density (less than 2000 cells/well) in 96-well plates. Twenty four hours post-plating, cells were treated with different concentrations of test compounds ranging from 30 uM to 1.5 nM. Several wells were left untreated as a control. Seventy two hours post-treatment, cell numbers were determined using 50-100 ul per well of CellTiter-Glo (Promega #G7573). Plates were incubated at 37° C. for 30 minutes and the chemiluminescent signal was read on the Victor V or Envison 2100 reader. […]

[2] = target: T1, human IGF-1R (NIH-3T3 cells over expressing human IGF-1R) (Homo sapiens, UniProt P08069); assay: IGF-1R cellular autophosphorylation (DELFIA); settings: IGF-1 stimulated
T1 construct: expressed in transfected cells; host or cells: NIH-3T3 (mouse fibroblasts)
Method in brief: (§1)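 Autophosphorylation of IGF-1R or IR is measured in NIH-3T3 lines overexpressing each human receptor after 2 h compound pretreatment and a 15 min ligand challenge (IGF-1 30 ng/mL; insulin 3 ug/mL). Fluorescence is normalised to 100% stimulation.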

[3] = target: T2, IR (NIH-3T3 cells over expressing human IGF-1R or IR) (Homo sapiens, UniProt P06213); assay: IR cellular autophosphorylation (DELFIA); settings: NIH-3T3 cells over expressing IR, insulin stimulated
T2 construct: expressed in transfected cells; host or cells: NIH-3T3 (mouse fibroblasts)
Method in brief: as §1

T2 sequence (P06213 28-1382): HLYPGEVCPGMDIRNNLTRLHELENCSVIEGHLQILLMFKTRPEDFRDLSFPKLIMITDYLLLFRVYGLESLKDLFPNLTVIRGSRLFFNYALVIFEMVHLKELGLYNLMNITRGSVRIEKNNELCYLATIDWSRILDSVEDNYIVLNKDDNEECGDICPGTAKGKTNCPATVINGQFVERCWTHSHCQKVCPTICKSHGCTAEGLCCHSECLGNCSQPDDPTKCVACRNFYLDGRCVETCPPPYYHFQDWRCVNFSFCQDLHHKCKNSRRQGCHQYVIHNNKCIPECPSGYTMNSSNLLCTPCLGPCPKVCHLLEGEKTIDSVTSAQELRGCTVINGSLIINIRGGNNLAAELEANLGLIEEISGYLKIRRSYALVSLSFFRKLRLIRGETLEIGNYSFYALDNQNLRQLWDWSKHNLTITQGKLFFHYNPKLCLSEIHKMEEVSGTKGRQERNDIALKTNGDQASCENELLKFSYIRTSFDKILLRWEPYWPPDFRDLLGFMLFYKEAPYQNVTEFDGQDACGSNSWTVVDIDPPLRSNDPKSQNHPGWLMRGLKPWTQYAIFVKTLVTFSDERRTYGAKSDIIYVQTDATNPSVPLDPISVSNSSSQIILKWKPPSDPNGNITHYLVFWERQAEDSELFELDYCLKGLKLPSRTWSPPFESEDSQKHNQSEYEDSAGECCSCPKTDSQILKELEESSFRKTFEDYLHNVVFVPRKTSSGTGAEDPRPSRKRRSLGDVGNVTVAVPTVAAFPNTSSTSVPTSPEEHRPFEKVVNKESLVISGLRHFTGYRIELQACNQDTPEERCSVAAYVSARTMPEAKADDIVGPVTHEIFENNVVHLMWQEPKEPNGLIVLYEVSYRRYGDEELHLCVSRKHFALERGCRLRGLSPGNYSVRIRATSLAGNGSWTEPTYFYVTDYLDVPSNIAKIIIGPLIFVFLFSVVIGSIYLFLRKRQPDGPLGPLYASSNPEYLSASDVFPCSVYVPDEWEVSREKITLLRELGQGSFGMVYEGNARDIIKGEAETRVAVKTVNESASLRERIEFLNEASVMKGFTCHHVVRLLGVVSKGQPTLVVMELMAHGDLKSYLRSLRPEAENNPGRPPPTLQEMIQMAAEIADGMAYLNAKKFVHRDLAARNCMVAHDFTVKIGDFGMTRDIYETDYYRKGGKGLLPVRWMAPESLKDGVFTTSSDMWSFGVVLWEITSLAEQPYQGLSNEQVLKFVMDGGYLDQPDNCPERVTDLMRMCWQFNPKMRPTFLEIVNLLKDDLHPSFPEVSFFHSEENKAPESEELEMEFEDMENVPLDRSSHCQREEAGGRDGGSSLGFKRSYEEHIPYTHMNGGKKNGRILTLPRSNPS
T1 sequence (P08069 31-1367): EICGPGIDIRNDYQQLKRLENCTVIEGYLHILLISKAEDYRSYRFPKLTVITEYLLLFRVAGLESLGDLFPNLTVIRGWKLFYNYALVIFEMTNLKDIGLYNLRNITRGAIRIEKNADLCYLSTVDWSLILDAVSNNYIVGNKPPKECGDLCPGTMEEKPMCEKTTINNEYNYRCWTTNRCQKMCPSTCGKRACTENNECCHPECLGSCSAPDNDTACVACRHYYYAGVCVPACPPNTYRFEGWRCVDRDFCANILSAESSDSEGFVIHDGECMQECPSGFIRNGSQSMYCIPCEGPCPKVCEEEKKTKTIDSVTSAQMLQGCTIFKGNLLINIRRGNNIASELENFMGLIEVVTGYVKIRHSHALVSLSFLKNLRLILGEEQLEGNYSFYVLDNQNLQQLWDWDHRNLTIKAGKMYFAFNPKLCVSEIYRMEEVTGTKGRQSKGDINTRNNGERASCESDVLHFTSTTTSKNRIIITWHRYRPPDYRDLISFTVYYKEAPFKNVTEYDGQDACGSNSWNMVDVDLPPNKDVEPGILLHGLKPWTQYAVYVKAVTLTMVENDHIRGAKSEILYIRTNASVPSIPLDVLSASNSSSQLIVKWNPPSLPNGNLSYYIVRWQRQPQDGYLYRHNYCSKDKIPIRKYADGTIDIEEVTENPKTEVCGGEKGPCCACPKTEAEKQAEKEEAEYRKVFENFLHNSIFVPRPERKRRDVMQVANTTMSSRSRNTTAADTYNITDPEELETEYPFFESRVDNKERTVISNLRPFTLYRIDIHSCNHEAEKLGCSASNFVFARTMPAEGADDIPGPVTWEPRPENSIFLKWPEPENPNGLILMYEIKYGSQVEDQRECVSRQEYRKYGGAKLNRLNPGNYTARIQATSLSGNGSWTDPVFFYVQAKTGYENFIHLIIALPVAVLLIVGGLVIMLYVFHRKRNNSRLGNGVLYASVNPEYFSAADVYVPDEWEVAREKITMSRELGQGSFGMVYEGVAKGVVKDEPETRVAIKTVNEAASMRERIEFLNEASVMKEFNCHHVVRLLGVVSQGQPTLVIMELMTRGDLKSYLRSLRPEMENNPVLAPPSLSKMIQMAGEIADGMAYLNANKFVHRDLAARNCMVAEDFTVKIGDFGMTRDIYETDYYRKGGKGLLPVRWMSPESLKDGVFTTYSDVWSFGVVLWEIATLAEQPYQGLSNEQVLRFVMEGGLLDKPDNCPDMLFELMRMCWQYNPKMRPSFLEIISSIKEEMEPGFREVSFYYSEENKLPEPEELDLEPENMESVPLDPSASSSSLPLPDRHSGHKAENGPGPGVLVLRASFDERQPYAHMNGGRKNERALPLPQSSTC

Compound	IC50 (COLO205 (colon)) [nM]	IC50 [1] [nM]	IC50 [2] [nM]	IC50 [3] [nM]
COc1cc(N2CCC(N3CCN(CCS(C)(=O)=O)CC3)CC2)ccc1Nc1nccc(-c2c(-c3cccc(C(=O)Nc4c(F)cccc4F)c3)nc3c(C)cccn23)n1 [Example 67, N-(2,6-difluorophenyl)-3-[8-methyl-3-(2-{[2-(methyloxy)-4-(4-{4-[2-(methylsulfonyl)ethyl)-1-piperazinyl}-1-piperidinyl)phenyl]amino]-4-pyrimidinyl)imidazo[1,2-a]pyridin-2-yl]benzamide]	250 to 1000	250 to 1000	< 100	100 to 500
COc1cc(N2CCC(N3CCN(S(C)(=O)=O)CC3)CC2)ccc1Nc1nccc(-c2c(-c3cccc(C(=O)Nc4c(F)cccc4F)c3)nc3c(C)cccn23)n1 [Example 68, N-(2,6-difluorophenyl)-3-(8-methyl-3-{2-[(2-(methyloxy)-4-{4-[4-(methylsulfonyl)-1-piperazinyl]-1-piperidinyl}phenyl)amino]-4-pyrimidinyl}imidazo[1,2-a]pyridin-2-yl)benzamide]	250 to 1000	250 to 1000	100 to 500	100 to 500
COc1cc(N2CCC(N3CCN(C(C)=O)CC3)CC2)ccc1Nc1nccc(-c2c(-c3cccc(C(=O)Nc4c(F)cccc4F)c3)nc3ccccn23)n1 [Example 70]	250 to 1000	< 250	< 100	< 100
COc1cc(N2CCC(N3CCN4CCOC[C@@H]4C3)CC2)ccc1Nc1nccc(-c2c(-c3cccc(C(=O)Nc4c(F)cccc4F)c3)nc3ccccn23)n1 [Example 87, N-(2,6-difluorophenyl)-3-[3-(2-{[4-{4-[(9aS)-hexahydropyrazino[2,1-c][1,4]oxazin-8(1H)-yl]-1-piperidinyl}-2-(methyloxy)phenyl]amino}-4-pyrimidinyl)imidazo[1,2-a]pyridin-2-yl]benzamide]	250 to 1000	< 250	< 100	< 100
COc1cc(N2CCC(N3CCN4CCOC[C@@H]4C3)CC2)ccc1Nc1nccc(-c2c(-c3ccc(OC)c(C(=O)Nc4c(F)cccc4F)c3)nc3ccccn23)n1 [Example 88, N-(2,6-difluorophenyl)-5-[3-(2-{[4-{4-[(9aS)-hexahydropyrazino[2,1-c][1,4]oxazin-8(1H)-yl]-1-piperidinyl}-2-(methyloxy)phenyl]amino}-4-pyrimidinyl)imidazo[1,2-a]pyridin-2-yl]-2-(methyloxy)benzamide]	> 1000	< 250	< 100	< 100
COc1cc(N2CCC(C3CCN(CCF)CC3)CC2)ccc1Nc1nccc(-c2c(-c3cccc(C(=O)Nc4c(F)cccc4F)c3)nc3ccccn23)n1 [Example 95, N-(2,6-difluorophenyl)-3-[3-(2-{[4-[1′-(2-fluoroethyl)-4,4′-bipiperidin-1-yl]-2-(methyloxy)phenyl]amino}-4-pyrimidinyl)imidazo[1,2-a]pyridin-2-yl]benzamide]	> 1000	250 to 1000	< 100	100 to 500
COc1cc(N2CCC(C3CCN(CCF)CC3)CC2)ccc1Nc1nccc(-c2c(-c3ccc(OC)c(C(=O)Nc4c(F)cccc4F)c3)nc3ccccn23)n1 [Example 96, N-(2,6-difluorophenyl)-5-[3-(2-{[4-[1′-(2-fluoroethyl)-4,4′-bipiperidin-1-yl]-2-(methyloxy)phenyl]amino}-4-pyrimidinyl)imidazo[1,2-a]pyridin-2-yl]-2-(methyloxy)benzamide]	> 1000	250 to 1000	< 100	< 100
COc1cc(N2CCC(C3CCN(CCS(C)(=O)=O)CC3)CC2)ccc1Nc1nccc(-c2c(-c3cccc(C(=O)Nc4c(F)cccc4F)c3)nc3ccccn23)n1 [Example 97, N-(2,6-difluorophenyl)-3-(3-{2-[(2-(methyloxy)-4-{1′-[2-(methylsulfonyl)ethyl]-4,4′-bipiperidin-1-yl}phenyl)amino]-4-pyrimidinyl}imidazo[1,2-a]pyridin-2-yl)benzamide]	250 to 1000	250 to 1000	< 100	< 100
COc1cc(N2CCC(C3CCN(CCS(C)(=O)=O)CC3)CC2)ccc1Nc1nccc(-c2c(-c3ccc(OC)c(C(=O)Nc4c(F)cccc4F)c3)nc3ccccn23)n1 [Example 98, N-(2,6-difluorophenyl)-2-(methyloxy)-5-(3-{2-[(2-(methyloxy)-4-{1′-[2-(methylsulfonyl)ethyl]-4,4′-bipiperidin-1-yl}phenyl)amino]-4-pyrimidinyl}imidazo[1,2-a]pyridin-2-yl)benzamide]	250 to 1000	250 to 1000	< 100	< 100
COc1cc(C2CCN(C3CCN(CCS(C)(=O)=O)CC3)CC2)ccc1Nc1nccc(-c2c(-c3cccc(C(=O)Nc4c(F)cccc4F)c3)nc3ccccn23)n1 [Example 99, N-(2,6-difluorophenyl)-3-(3-{2-[(2-(methyloxy)-4-{1′-[2-(methylsulfonyl)ethyl]-1,4′-bipiperidin-4-yl}phenyl)amino]-4-pyrimidinyl}imidazo[1,2-a]pyridin-2-yl)benzamide]	< 250	< 250	< 100	< 100
COc1cc(C2CCN(C3CCN(CCF)CC3)CC2)ccc1Nc1nccc(-c2c(-c3cccc(C(=O)Nc4c(F)cccc4F)c3)nc3ccccn23)n1 [Example 100]	250 to 1000	250 to 1000	< 100	< 100
COc1cc(N2CCC(N3CCC(CCS(C)(=O)=O)CC3)CC2)ccc1Nc1nccc(-c2c(-c3cccc(C(=O)Nc4c(F)cccc4F)c3)nc3ccccn23)n1 [Example 101, N-(2,6-difluorophenyl)-3-(3-{2-[(2-(methyloxy)-4-{4-[2-(methylsulfonyl)ethyl)-1,4′-bipiperidin-1′-yl]phenyl)amino]-4-pyrimidinyl}imidazo[1,2-a]pyridin-2-yl)benzamide]	250 to 1000	< 250	< 100	< 100
COc1cc(N2CCC(N3CCC(CCS(C)(=O)=O)CC3)CC2)ccc1Nc1nccc(-c2c(-c3ccc(OC)c(C(=O)Nc4c(F)cccc4F)c3)nc3ccccn23)n1 [Example 102, N-(2,6-difluorophenyl)-2-(methyloxy)-5-(3-{2-[(2-(methyloxy)-4-{4-[2-(methylsulfonyl)ethyl]-1,4′-bipiperidin-1′-yl}phenyl)amino]-4-pyrimidinyl}imidazo[1,2-a]pyridin-2-yl)benzamide]	250 to 1000	< 250	< 100	< 100
CCOc1ccc(-c2nc3ccccn3c2-c2ccnc(Nc3ccc(N4CCC(N5CCC(CCS(C)(=O)=O)CC5)CC4)cc3OC)n2)cc1C(=O)Nc1c(F)cccc1F [Example 103, N-(2,6-difluorophenyl)-2-(ethyloxy)-5-(3-{2-[(2-(methyloxy)-4-{4-[2-(methylsulfonyl)ethyl]-1,4′-bipiperidin-1′-yl}phenyl)amino]-4-pyrimidinyl}imidazo[1,2-a]pyridin-2-yl)benzamide]	250 to 1000	< 250	< 100	< 100
COc1cc(N2CCC(N3CCCCC3)CC2)c(OC)cc1Nc1nccc(-c2c(-c3cccc(C(=O)Nc4c(F)cccc4F)c3)nc3ccccn23)n1 [Example 110, 3-[3-(2-{[4-(1,4′-bipiperidin-1′-yl)-2,5-bis(methyloxy)phenyl]amino}-4-pyrimidinyl)imidazo[1,2-a]pyridin-2-yl]-N-(2,6-difluorophenyl)benzamide]	250 to 1000	< 250	< 100	< 100
COc1cc(N2CCC(N3CCN(CCF)CC3)CC2)c(OC)cc1Nc1nccc(-c2c(-c3cccc(C(=O)Nc4c(F)cccc4F)c3)nc3ccccn23)n1 [Example 111, N-(2,6-difluorophenyl)-3-[3-(2-{[4-{4-[4-(2-fluoroethyl)-1-piperazinyl]-1-piperidinyl}-2,5-bis(methyloxy)phenyl]amino}-4-pyrimidinyl)imidazo[1,2-a]pyridin-2-yl]benzamide]	250 to 1000	< 250	< 100	< 100
COc1cc(N2CCC(N3CCN(CCF)CC3)CC2)c(C)cc1Nc1nccc(-c2c(-c3cccc(C(=O)Nc4c(F)cccc4F)c3)nc3ccccn23)n1 [Example 113, N-(2,6-difluorophenyl)-3-[3-(2-{[4-{4-[4-(2-fluoroethyl)-1-piperazinyl]-1-piperidinyl}-5-methyl-2-(methyloxy)phenyl]amino]-4-pyrimidinyl)imidazo[1,2-a]pyridin-2-yl]benzamide]	> 1000	250 to 1000	< 100	< 100
